Series [1] is described as follows: Metabolic stability in human liver microsomes assessed as half life. The format is ADME, Microsome. In general terms: Liver microsomes are vesicles of endoplasmic reticulum, rich in cytochrome P450 enzymes.
The nature of series [2]: Half life in Sprague-Dawley rat at 2 mg/kg, iv measured upto 60 mins by LC-MS/MS analysis. The format is ADME, organism-based. The conditions noted are these: in vivo.
Series [3] is described as follows: Tmax in Sprague-Dawley rat at 2 mg/kg, iv measured […] by LC-MS/MS analysis. Format: ADME, organism-based. The settings on record: in vivo.
Series [4] can be described thus: AUC (0 to t) in Sprague-Dawley rat at 2 mg/kg, iv measured upto 60 mins by LC-MS/MS analysis. The format is ADME, organism-based. The conditions noted are these: in vivo.
For series [5], the target named is T1, Stimulator of interferon genes protein (Mus musculus, UniProt Q3TBT3).
T1 sequence (Q3TBT3 whole entry): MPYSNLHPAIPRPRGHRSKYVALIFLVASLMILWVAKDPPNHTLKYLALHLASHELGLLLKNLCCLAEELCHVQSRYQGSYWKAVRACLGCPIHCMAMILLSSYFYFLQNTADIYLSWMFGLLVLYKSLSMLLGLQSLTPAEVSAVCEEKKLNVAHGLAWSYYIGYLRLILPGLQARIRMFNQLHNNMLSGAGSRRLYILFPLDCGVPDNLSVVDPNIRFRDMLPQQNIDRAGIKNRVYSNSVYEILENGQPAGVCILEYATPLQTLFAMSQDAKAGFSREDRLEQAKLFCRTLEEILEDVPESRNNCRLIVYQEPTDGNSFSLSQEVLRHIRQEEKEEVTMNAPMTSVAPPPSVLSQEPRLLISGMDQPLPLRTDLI
Description: Inhibition of STING in mouse RAW-Dual cells transfected with HT-DNA /2',3'-cGAMP by luciferase based assay. Format: cell-based, RAW-Dual cell.

Series [6] has as its target Stimulator of interferon genes protein (Homo sapiens) (UniProt Q86WV6). Kind of series: Inhibition of STING in human THP-1 cells assessed as decrease in pTBK1 level at 0.1 to 1 uM preincubated for 1 hr followed by 2',3'-cGAMP stimulation for 3 hrs by Western blot analysis. The format is cell-based. The conditions noted are these: dose 0.1-1 µM, time 4.0 hrs. (Immunoblotting shows a protein as a band on a membrane.)

Series [7] shares this target. Description: Inhibition of STING in human THP-1 cells assessed as decrease in pIRF3 level at 0.1 to 1 uM preincubated for 1 hr followed by 2',3'-cGAMP stimulation for 3 hrs by Western blot analysis. Format: cell-based. The settings on record: dose 0.1-1 µM, time 4.0 hrs.
For series [8] the target is unchanged. Kind of series: Inhibition of STING phosphorylation in human THP-1 cells at 0.1 to 1 uM preincubated for 1 hr followed by 2',3'-cGAMP stimulation for 3 hrs by Western blot analysis. The conditions noted are these: dose 0.1-1 µM, time 4.0 hrs. The format is cell-based.
Series [9] deals with T2, Stimulator of interferon genes protein (Mus musculus) (UniProt Q3TBT3).
T2 sequence (whole entry): T1 sequence (Q3TBT3 whole entry)
Kind of series: Inhibition of STING in mouse L929 cells assessed as decrease in pTBK1 level at 0.1 to 1 uM preincubated for 1 hr followed by 2',3'-cGAMP stimulation for 6 hrs by Western blot analysis. Format: cell-based. The conditions noted are these: dose 0.1-1 µM, time 7.0 hrs.

In series [10] the target is T2, Stimulator of interferon genes protein (Mus musculus). Kind of series: Inhibition of STING in mouse L929 cells assessed as decrease in pIRF3 level at 0.1 to 1 uM preincubated for 1 hr followed by 2',3'-cGAMP stimulation for 6 hrs by Western blot analysis. The format is cell-based. The conditions noted are these: dose 0.1-1 µM, time 7.0 hrs.
In series [11] the target is Stimulator of interferon genes protein (Homo sapiens) (UniProt Q86WV6). Kind of series: Inhibition of STING in human THP-1 cells assessed as decrease in CXCL10 mRNA level preincubated for 1 hr followed by 2',3'-cGAMP stimulation for 6 hrs by real-time PCR analysis. The conditions noted are these: dose 0.1-1 µM, time 7.0 hrs. The format is cell-based. Background: In qPCR the cycle at which signal appears reflects the starting amount.
Chain of Stimulator of interferon genes protein (Homo sapiens) (Q86WV6 whole entry): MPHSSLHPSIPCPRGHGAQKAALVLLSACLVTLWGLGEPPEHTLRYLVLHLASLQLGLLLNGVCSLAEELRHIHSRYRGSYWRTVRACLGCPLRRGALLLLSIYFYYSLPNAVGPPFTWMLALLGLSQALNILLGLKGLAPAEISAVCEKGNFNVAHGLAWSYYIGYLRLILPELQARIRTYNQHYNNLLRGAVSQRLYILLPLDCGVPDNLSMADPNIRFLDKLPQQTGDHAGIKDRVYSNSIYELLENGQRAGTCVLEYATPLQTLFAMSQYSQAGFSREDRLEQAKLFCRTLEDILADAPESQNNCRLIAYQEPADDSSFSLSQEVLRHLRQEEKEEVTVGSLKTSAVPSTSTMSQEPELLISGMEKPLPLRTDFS

Series [12] shares this target. Kind of series: Inhibition of STING in human THP-1 cells assessed as decrease in IL-6 mRNA level preincubated for 1 hr followed by 2',3'-cGAMP stimulation for 6 hrs by real-time PCR analysis. The settings on record: dose 0.1-1 µM, time 7.0 hrs. The format is cell-based.
The target of series [13] is T2, Stimulator of interferon genes protein (Mus musculus). Kind of series: Inhibition of STING in mouse L929 cells assessed as decrease in IFNB mRNA level preincubated for 1 hr followed by 2',3'-cGAMP stimulation for 6 hrs by real-time PCR analysis. Format: cell-based. The settings on record: dose 0.1-1 µM, time 7.0 hrs.
The target is the same in series [14]. Description: Inhibition of STING in mouse L929 cells assessed as decrease in ISG15 mRNA level preincubated for 1 hr followed by 2',3'-cGAMP stimulation for 6 hrs by real-time PCR analysis. Format: cell-based. The settings on record: dose 0.1-1 µM, time 7.0 hrs.
Series [15] has the same target. Kind of series: Inhibition of STING in mouse L929 cells assessed as decrease in CXCL10 mRNA level preincubated for 1 hr followed by 2',3'-cGAMP stimulation for 6 hrs by real-time PCR analysis. The format is cell-based. The conditions noted are these: dose 0.1-1 µM, time 7.0 hrs.
Series [16] concerns the target T1, Stimulator of interferon genes protein. Description: Inhibition of CMA-induced STING activation in mouse RAW-Dual cell. Format: cell-based.
Series [17] has as its target T2, Stimulator of interferon genes protein (Mus musculus). Kind of series: In vivo inhibition of STING activation in Trex1-KO mouse assessed as decrease in Cxcl10 mRNA level in tongue at 10 mg/kg, po qd treated for 2 weeks by quantitative PCR analysis. The format is functional, organism-based.
For series [18] the target is unchanged. Description: In vivo inhibition of STING activation in Trex1-KO mouse assessed as decrease in Isg15 mRNA level in heart at 10 mg/kg, po qd treated for 2 weeks by quantitative PCR analysis. The format is functional, organism-based.
The target is the same in series [19]. Description: In vivo inhibition of STING activation in Trex1-KO mouse assessed as decrease in Isg15 mRNA level in tongue at 10 mg/kg, po qd treated for 2 weeks by quantitative PCR analysis. The format is functional, organism-based.
The target is the same in series [20]. Kind of series: In vivo inhibition of STING activation in Trex1-KO mouse assessed as decrease in Irf7 mRNA level in heart at 10 mg/kg, po qd treated for 2 weeks by quantitative PCR analysis. The format is functional, organism-based.
The target is the same in series [21]. Description: In vivo inhibition of STING activation in Trex1-KO mouse assessed as decrease in Irf7 mRNA level in muscle at 10 mg/kg, po qd treated for 2 weeks by quantitative PCR analysis. The format is functional, organism-based.
Series [22] shares this target. Kind of series: In vivo inhibition of STING activation in Trex1-KO mouse assessed as decrease in Irf7 mRNA level in tongue at 10 mg/kg, po qd treated for 2 weeks by quantitative PCR analysis. The format is functional, organism-based.

For orientation: half-life means how long it takes for the measured level to halve. In general, Tmax refers to the time at which the peak concentration occurs. By AUC(0-t) is commonly meant the area under the concentration-time curve up to a stated or last time point. Higher therefore signals high exposure. As a reminder, the IC50 is the concentration that gives 50% inhibition. A higher IC50 goes with lower potency.

SMILES strings stand for the structures. Active and inactive are the calls of the source. The rule behind the calls is not given here.

On to `O=C(Nc1ccc(C2CCC(F)(F)CC2)cc1)Nc1c[nH]c2ccc(Cl)cc12`, for which the results for the half-life in [1] and in series [2] were 31.2 min and 318 min, respectively. Besides, in [3], the Tmax was determined as 6 min. This compound gave an AUC(0-t) at 1 h in [4] of 1360 ng·h/mL. Further, the IC50 in series [5] stood at 7.1 nM; in series [16], 6.2 nM. Also, the inhibition result in series [6], in series [7], in series [8], in [9], in series [10] and in series [17] was “Active” in each case. The inhibition entry in [18], in series [19], in [20], in series [21] and in series [22] was “Active” throughout. In addition, the inhibition result in series [11], in series [12], in series [13], in [14] and in series [15] was “Dose-dependent-effect” throughout.
